Values of other authors as cited in patent publication US20090253620A1, “METHODS AND COMPOSITIONS FOR TREATING GASTROINTESTINAL RADIOSENSITITIVITY IN A SUBJECT” (WASHINGTON UNIVERSITY IN ST. LOUIS, priority 2005, published 2009).

Assays:
[1] = test system: intestinal mesenchymal cells; details: CONV-R wt mice
mice = details: CONV-R wt mice

Fgf-2: fibroblast growth factor-2
TBI-induced intestinal mesenchymal apoptosis [1]: attenuates | TBI-associated mortality (mice): decreases
